{
  "source": "patent US8906885B2",
  "about": "“Treating cancer with HSP90 inhibitory compounds” (Synta Pharmaceuticals Corp., priority 2011, dated 2014)",
  "key": {"H3122 NSCLC cells": {"tested_on": "H3122 NSCLC cells", "assay": "H3122 cell viability, Cell Titer Glo, 72 h", "format": "cell-based", "conditions": "for IC50: Homo sapiens, NCI-H3122, read-out: cytotoxic potency", "procedure": "H3122 cells were seeded in 96 well plates at a density of 7500 cells per well.\nTwenty-four hours after plating, cells were dosed with graded concentrations of drug or vehicle for 72 hours. Viability was measured by the Cell Titer Glo assay (Promega).\n(§1) Then, criztoinib was added to a final concentration of 1 μM. […] Viability was measured by Cell Titer Glo assay (Promega) (FIG. 5)"}, "[1]": {"tested_on": "NB-39-nu neuroblastoma cell line", "assay": "NB-39-nu neuroblastoma cell viability", "conditions": "for effect in combination with ganetespib: NB-39-nu cells"}, "H3122 xenografts [2]": {"tested_on": "H3122 xenografts", "assay": "Sequential treatment of H3122 xenografts progressing on ganetespib", "format": "in vivo, mouse", "conditions": "after 26 days of ganetespib"}, "H3122 xenografts [3]": {"tested_on": "H3122 xenografts", "assay": "Survival of animals bearing H3122 xenografts", "format": "in vivo, mouse"}, "ALK+ NSCLC": {"tested_on": "ALK+ NSCLC", "assay": "Phase 2 NSCLC trial, patients tested for ALK translocation or rearrangement (ALK+)", "format": "in vivo, human", "conditions": "eight ALK+ patients; monotherapy once-weekly 200 mg/m^2", "text": "FIG. 1 is a waterfall diagram showing the best percentage changes in size of target lesions responses according to ALK status after treatment with ganetespib. The y axis represents the percentage tumor volume change from baseline. […] A subject was considered to be ALK+ if a mutation in ALK was detected using any of the methods.\nOf 23 patients in a Phase 2 trial tested for ALK translocation or rearrangement (ALK+), eight patients were ALK+ in at least one assay. […] The disease control rate in this population was ⅞ (88%), and the objective response rate (CR+PR) was 4/8 (50%).\nThis Phase 2 NSCLC trial was designed to enroll patients with advanced, metastatic disease (Stage IIIB and IV) who had failed prior therapy. Patients were grouped into one of three cohorts based on the genetic profile of their cancer—(A) EGFR mutation, (B) KRAS mutation, (C) neither EGFR nor KRAS mutation—and were treated with Compound 1, as a monotherapy, once-weekly at a dose of 200 mg/m^2. Based on initial encouraging signs of activity, the trial was expanded with two additional patient cohorts, including a cohort which allowed for combination treatment with ganetespib and docetaxel."}, "EML4-ALK [4]": {"tested_on": "EML4-ALK", "assay": "Pharmacodynamic analysis in H3122 xenografts (western blot)"}, "H2228 NSCLC cells": {"tested_on": "H2228 NSCLC cells", "assay": "H2228 cell viability", "format": "cell-based"}, "ALK": {"tested_on": "ALK", "assay": "ALK degradation and effector signaling in NB-39-nu cells"}, "[5]": {"tested_on": "crizotinib resistant H3122 cells", "assay": "Viability of crizotinib resistant H3122 cells", "format": "cell-based", "procedure": "as §1"}, "[6]": {"tested_on": "crizotinib resistant H2228 cells", "assay": "Viability of crizotinib resistant H2228 cells", "format": "cell-based"}, "NPM-ALK/BaF3 cells": {"tested_on": "NPM-ALK/BaF3 cells", "assay": "Cytotoxic IC50 by XTT assay, NPM-ALK/BaF3 cells", "conditions": "read-out: cytotoxic IC50; crizotinib-sensitive parental NPM-ALK/BaF3, 72-hr incubation"}, "EML4-ALK positive NSCLC": {"tested_on": "EML4-ALK positive NSCLC", "assay": "Case study, crizotinib refractory EML4-ALK positive NSCLC patient", "format": "in vivo, human", "conditions": "after three weeks of once-weekly injections; patient with resistance mutation to crizotinib", "text": "FIG. 2 depicts lung photographs of a person with NSCLC, who was diagnosed, and treated with pemetrexed/cisplatinum with pemetrexed maintenance for thirteen months. […] The picture on the left was taken on before commencing treatment with ganetespib. Treatment of ganetespib was initiated nine days later. The picture on the right was taken thirty-one days after the picture on the left.\nThe picture on the left was taken on before commencing treatment with ganetespib. Treatment of ganetespib was initiated nine days later."}, "EML4-ALK [7]": {"target": "T1, EML4-ALK (Homo sapiens, UniProt Q9UM73)", "T1 construct": "the breakpoint of ALK occurs consistently at exon 20, 5′ of the kinase domain; EML4 N-terminal portion (through exon 13); endogenous in cells; host or cells: H3122 NSCLC cells; the other entry of the earlier key: EML4 (Q9HC35, Echinoderm microtubule-associated protein-like 4)", "T1 sequence (Q9UM73 with tags, fused parts or gaps)": "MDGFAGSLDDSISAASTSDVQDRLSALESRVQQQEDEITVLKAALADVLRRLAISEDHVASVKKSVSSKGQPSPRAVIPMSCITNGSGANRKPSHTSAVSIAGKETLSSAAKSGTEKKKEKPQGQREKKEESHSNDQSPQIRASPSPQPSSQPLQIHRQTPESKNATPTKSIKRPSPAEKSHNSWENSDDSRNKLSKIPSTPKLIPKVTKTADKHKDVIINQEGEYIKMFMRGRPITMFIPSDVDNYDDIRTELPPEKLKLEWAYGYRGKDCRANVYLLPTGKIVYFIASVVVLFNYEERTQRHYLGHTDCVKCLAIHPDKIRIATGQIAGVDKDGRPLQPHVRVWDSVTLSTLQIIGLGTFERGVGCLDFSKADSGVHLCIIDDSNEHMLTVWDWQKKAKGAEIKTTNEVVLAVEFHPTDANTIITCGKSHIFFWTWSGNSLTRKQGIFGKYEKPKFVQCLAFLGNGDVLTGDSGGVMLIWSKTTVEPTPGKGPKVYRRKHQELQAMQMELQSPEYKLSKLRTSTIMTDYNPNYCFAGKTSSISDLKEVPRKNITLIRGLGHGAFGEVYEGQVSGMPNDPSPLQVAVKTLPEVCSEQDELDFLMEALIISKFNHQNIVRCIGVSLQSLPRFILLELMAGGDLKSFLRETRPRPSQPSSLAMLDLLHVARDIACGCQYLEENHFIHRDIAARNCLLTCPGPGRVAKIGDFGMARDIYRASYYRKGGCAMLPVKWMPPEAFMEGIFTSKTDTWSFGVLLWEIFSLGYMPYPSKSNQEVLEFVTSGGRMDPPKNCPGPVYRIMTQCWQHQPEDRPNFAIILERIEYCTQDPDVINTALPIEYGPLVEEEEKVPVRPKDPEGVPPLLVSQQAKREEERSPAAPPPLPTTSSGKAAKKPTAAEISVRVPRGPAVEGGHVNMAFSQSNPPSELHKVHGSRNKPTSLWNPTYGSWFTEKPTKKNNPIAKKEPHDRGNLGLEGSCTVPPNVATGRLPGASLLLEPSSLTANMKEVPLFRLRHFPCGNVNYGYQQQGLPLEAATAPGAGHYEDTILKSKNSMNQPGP", "assay": "Western blot of EML4-ALK and signaling proteins in H3122 cells", "format": "cell-based", "procedure": "H3122 cells were plated in 6 well plates at a density of 300,000 cells per well. […] Equivalent amounts of protein were resolved by SDS-PAGE followed by western blot analysis of signaling proteins."}, "[8]": {"tested_on": "crizotinib-resistant NPM-ALK/BaF3 cells", "conditions": "all crizotinib-resistant NPM-ALK/BaF3 clones"}, "[9]": {"tested_on": "NPM-ALK and mutant NPM-ALK", "assay": "Immunoblotting of NPM-ALK degradation in BaF3 cells", "format": "cell-based", "conditions": "wild type and 15 mutant forms"}, "H3122 xenografts [10]": {"tested_on": "H3122 xenografts", "procedure": "Tumor volume was measured twice weekly to assess the level of growth inhibition.\nAs for in vivo xenograft tumor models, female BALB/c, immunodeficient BALB/c nude and CB-17/Icr-Prkdcscid/Crl (SCID) mice (Charles River Laboratories, Wilmington, Mass.) at 7-12 weeks of age were maintained in a pathogen-free environment and all in vivo procedures were approved by the Synta Pharmaceuticals Corp. Statistical analyses were performed using a Kruskal-Wallace one-way ANOVA on ranks followed by the Tukey test. […]"}},
  "note": "Like-named read-outs stand apart in the source and are kept apart here.",
  "data": [
    {"smiles": "C[C@@H](Oc1cc(-c2cnn(C3CCNCC3)c2)cnc1N)c1c(Cl)ccc(F)c1Cl", "note": "[crizotinib, reference compound]", "values": [
      {"measurement": "IC50", "setting": "H3122 NSCLC cells; H3122 cells", "result": 156, "unit": "nM"},
      {"measurement": "effect in combination with ganetespib", "setting": "[1]", "result": "enhanced the anticancer actions of ganetespib"},
      {"measurement": "response of tumors progressing (>20% increase in volume) on ganetespib to subsequent treatment", "setting": "H3122 xenografts [2]", "result": "intermediary response"},
      {"measurement": "survival (day at which 50% of animals died)", "setting": "H3122 xenografts [3]; crizotinib 50 mg/kg 5×/wk", "result": 54, "unit": "days"}
    ]},
    {"smiles": "CC(C)c1cc(-c2nnc(O)n2-c2ccc3c(ccn3C)c2)c(O)cc1O", "note": "[ganetespib, 3-(2,4-dihydroxy-5-isopropyl-phenyl)-4-(1-methyl-indol-5-yl)-5-hydroxy-[1,2,4] triazole]", "values": [
      {"measurement": "potency compared with crizotinib", "setting": "H3122 NSCLC cells; H3122 NSCLC cells", "result": "significantly more potent than crizotinib"},
      {"measurement": "potency relative to crizotinib", "setting": "H3122 NSCLC cells; H3122 cells", "result": "~50", "unit": "times"},
      {"measurement": "potency compared to other anticancer agents (crizotinib, 17-AAG, pemetrexed, BEZ-235, AZD6244)", "setting": "H3122 NSCLC cells; H3122 cells, 72 hours", "result": "2-300 ×"},
      {"measurement": "IC50", "setting": "H3122 NSCLC cells; H3122 cells", "result": 3.2, "unit": "nM"},
      {"measurement": "disease control rate", "setting": "ALK+ NSCLC", "result": 88, "unit": "%"},
      {"measurement": "objective response rate (CR+PR)", "setting": "ALK+ NSCLC", "result": 50, "unit": "%"},
      {"measurement": "patients showing tumor shrinkage in target lesions", "setting": "ALK+ NSCLC", "result": 75, "unit": "%"},
      {"measurement": "duration of EML4-ALK depletion and block of oncogenic signaling pathways", "setting": "EML4-ALK [4]; 100 mpk (FIG. 13 legend)", "result": "up to 4 days"},
      {"measurement": "time to degradation of EML4-ALK and deactivation of ERK signaling", "setting": "EML4-ALK [4]; single bolus injection 50 mg/kg", "result": "≤ 24", "unit": "h"},
      {"measurement": "duration of destabilization of fusion kinase and its effectors", "setting": "EML4-ALK [4]; single dose 50 mg/kg", "result": "up to 72 h"},
      {"measurement": "potency compared with crizotinib", "setting": "H2228 NSCLC cells", "result": "significantly more potent than crizotinib"},
      {"measurement": "degradation of ALK", "setting": "ALK", "result": "dose-dependent degradation"},
      {"measurement": "activity in crizotinib resistant cells", "setting": "[5]", "result": "low nanomolar activity equivalent to that observed in the parental population"},
      {"measurement": "IC50", "setting": "[1]; Neuroblastoma cell, read-out: viability IC50", "result": 10, "unit": "nM"},
      {"measurement": "activity in crizotinib resistant cells", "setting": "[6]", "result": "low nanomolar activity equivalent to that observed in the parental population"},
      {"measurement": "response of tumors progressing (>20% increase in volume) on ganetespib to subsequent treatment", "setting": "H3122 xenografts [2]", "result": "remained fairly stable"},
      {"measurement": "IC50", "setting": "NPM-ALK/BaF3 cells", "result": 21, "unit": "nM"},
      {"measurement": "tumor response on lung pictures", "setting": "EML4-ALK positive NSCLC", "result": "visible and significant tumor shrinkage"},
      {"measurement": "concentration giving complete loss of phosphorylated EML4-ALK", "setting": "EML4-ALK [7]", "result": 30, "unit": "nM"},
      {"measurement": "IC50 values in crizotinib-resistant clones", "setting": "[8]", "result": "essentially identical to that of NPM-ALK/BaF3"},
      {"measurement": "degradation of ALK", "setting": "[9]", "result": "induced the degradation of wild type and all 15 mutant forms of ALK"},
      {"measurement": "T/C value", "setting": "H3122 xenografts [10]; ganetespib 25 mg/kg once weekly", "result": 41, "unit": "%"},
      {"measurement": "T/C value", "setting": "H3122 xenografts [10]; ganetespib 25 mg/kg two consecutive days each week", "result": 10, "unit": "%"},
      {"measurement": "T/C value", "setting": "H3122 xenografts [10]; ganetespib 50 mg/kg i.v. once a week, 3 week period", "result": 21, "unit": "%"},
      {"measurement": "animals lost on study", "setting": "H3122 xenografts [3]; ganetespib 50 mg/kg 1×/wk, as of day 75", "result": "none of the animals treated with ganetespib had been lost"}
    ]},
    {"smiles": "COc1cc(N2CCC(N3CCN(C)CC3)CC2)ccc1Nc1ncc(Cl)c(Nc2ccccc2S(=O)(=O)C(C)C)n1", "note": "[TAE684]", "values": [
      {"measurement": "effect in combination with ganetespib", "setting": "[1]", "result": "enhanced the anticancer actions of ganetespib"}
    ]}
  ]
}
